The record followed here is ChEMBL document CHEMBL4402510, “Caprazamycins: Promising lead structures acting on a novel antibacterial target MraY” (Eur J Med Chem, 2019).

Converted amounts (≈) assume the structure as drawn. Bounds are passed on as bounds.

Assay [1] deals with Staphylococcus aureus. Description: Antibacterial activity against methicillin susceptible Staphylococcus aureus after 20 hrs by NCCLS-based two-fold broth dilution method. The class given is functional. The settings on record: read-out: MIC. (Dilution methods test growth across graded concentrations, often in twofold steps.)
Assay [2] relates to Acinetobacter baumannii. Description: Antibacterial activity against Acinetobacter baumannii ATCC 19606. The class given is functional. Particulars: ATCC 19606 = CIP 70.34 = JCM 6841.
Assay [3] deals with Haemophilus influenzae. Description: Antibacterial activity against Haemophilus influenzae after 20 hrs by NCCLS-based two-fold broth dilution method. The class given is functional.
Assay [4] has as its system Pseudomonas aeruginosa. Description: Antibacterial activity against Pseudomonas aeruginosa PAO1 deltamexB. The class given is functional.
Assay [5] deals with T1, Phospho-N-acetylmuramoyl-pentapeptide-transferase (Staphylococcus aureus, UniProt P0C1R8).
T1 sequence (P0C1R8 whole entry): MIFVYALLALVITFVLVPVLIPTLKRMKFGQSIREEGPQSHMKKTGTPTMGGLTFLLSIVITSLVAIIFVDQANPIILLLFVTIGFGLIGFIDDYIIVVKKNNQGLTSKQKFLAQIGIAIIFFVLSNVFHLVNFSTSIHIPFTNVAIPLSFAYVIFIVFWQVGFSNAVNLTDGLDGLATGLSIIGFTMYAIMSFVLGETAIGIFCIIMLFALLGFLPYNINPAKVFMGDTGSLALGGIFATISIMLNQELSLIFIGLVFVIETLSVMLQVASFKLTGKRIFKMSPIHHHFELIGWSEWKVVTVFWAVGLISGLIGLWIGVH
Description: Inhibition of MraY in Staphylococcus aureus.

Assay [6] deals with Streptococcus pneumoniae. Description: Antibacterial activity against Streptococcus pneumoniae. The class given is functional.
Assay [7] deals with Enterococcus faecium. Kind of assay: Antibacterial activity against Enterococcus faecium ATCC 19434. It is filed as functional.
Assay [8] has as its system Staphylococcus aureus. Kind of assay: Antibacterial activity against methicillin resistant Staphylococcus aureus SR3637. It is filed as functional.
In assay [9] the test system is Staphylococcus aureus. Description: Antibacterial activity against methicillin susceptible Staphylococcus aureus ATCC 29213. The class given is functional.
For assay [10], the system named is Enterococcus faecium. Description: Antibacterial activity against t Enterococcus faecium after 20 hrs by NCCLS-based two-fold broth dilution method. It is filed as functional.
For assay [11], the system named is Enterococcus faecalis. Description: Antibacterial activity against Enterococcus faecalis ATCC 29212. It is filed as functional.
Assay [12] deals with Pseudomonas aeruginosa. Kind of assay: Antibacterial activity against Pseudomonas aeruginosa YY165. The class given is functional.
The test system of assay [13] is Enterococcus faecalis. Kind of assay: Antibacterial activity against Enterococcus faecalis SR7914 (VRE). It is filed as functional.
The test system of assay [14] is Enterococcus faecalis. Kind of assay: Antibacterial activity against t Enterococcus faecalis after 20 hrs by NCCLS-based two-fold broth dilution method. Particulars: read-out: MIC. It is filed as functional.
The test system of assay [15] is Enterococcus faecium. Description: Antibacterial activity against Enterococcus faecium SR7917 (VRE). The class given is functional.
The test system of assay [16] is Enterococcus faecalis. Description: Antibacterial activity against t Enterococcus faecalis VRE after 20 hrs by NCCLS-based two-fold broth dilution method. The class given is functional. Particulars: read-out: MIC.
The subject of assay [17] is Haemophilus influenzae. Kind of assay: Antibacterial activity against Haemophilus influenzae ATCC 10211. It is filed as functional.
The test system of assay [18] is Enterococcus faecium. Kind of assay: Antibacterial activity against t Enterococcus faecium VRE after 20 hrs by NCCLS-based two-fold broth dilution method. It is filed as functional. Particulars: read-out: MIC.
Assay [19] has as its system Pseudomonas aeruginosa. Description: Antibacterial activity against Pseudomonas aeruginosa after 20 hrs by NCCLS-based two-fold broth dilution method. The class given is functional.
Assay [20] relates to Staphylococcus aureus. Description: Antibacterial activity against methicillin resistant Staphylococcus aureus after 20 hrs by NCCLS-based two-fold broth dilution method. It is filed as functional. The settings on record: read-out: MIC.
In assay [21] the test system is Escherichia coli. Description: Antibacterial activity against Escherichia coli after 20 hrs by NCCLS-based two-fold broth dilution method. The class given is functional.
Assay [22] concerns Escherichia coli. Kind of assay: Antibacterial activity against Escherichia coli ATCC 25922. It is filed as functional.
In assay [23] the test system is Mycolicibacterium fortuitum. Description: Antibacterial activity against Mycobacterium fortuitum. The class given is functional.
The subject of assay [24] is Escherichia coli. Kind of assay: Antibacterial activity against Escherichia coli. It is filed as functional.
In assay [25] the test system is Mycolicibacterium smegmatis. Description: Antibacterial activity against Mycobacterium smegmatis. It is filed as functional.
The subject of assay [26] is Staphylococcus aureus. Kind of assay: Antibacterial activity against Staphylococcus aureus. It is filed as functional.
The test system of assay [27] is Bacillus subtilis. Description: Antibacterial activity against Bacillus subtilis. It is filed as functional.
Assay [28] relates to Mycobacterium avium. Description: Antibacterial activity against Mycobacterium avium. It is filed as functional.
Assay [29] deals with Mycobacterium intracellulare. Description: Antibacterial activity against Mycobacterium intracellulare. It is filed as functional.
The subject of assay [30] is Mycobacterium tuberculosis. Kind of assay: Antibacterial activity against Mycobacterium tuberculosis. The class given is functional.
Assay [31] relates to Escherichia coli. Description: Antibacterial activity against Escherichia coli ATCC 8730. The class given is functional.
In assay [32] the test system is Pseudomonas aeruginosa. Description: Antibacterial activity against Pseudomonas aeruginosa ATCC 27853. The class given is functional.
In assay [33] the test system is Staphylococcus aureus. Description: Antibacterial activity against methicillin resistant Staphylococcus aureus. It is filed as functional, organism-based.
Assay [34] deals with Staphylococcus aureus. Kind of assay: Antibacterial activity against methicillin resistant Staphylococcus aureus ATCC 43300. It is filed as functional.
The subject of assay [35] is Staphylococcus aureus. Kind of assay: Antibacterial activity against Staphylococcus aureus ATCC 25923. It is filed as functional.
The test system of assay [36] is Citrobacter freundii. Kind of assay: Antibacterial activity against Citrobacter freundii ATCC 8090. It is filed as functional.
Assay [37] has as its target T2, Phospho-N-acetylmuramoyl-pentapeptide-transferase (Bacillus subtilis (strain 168), UniProt Q03521).
T2 sequence (Q03521 whole entry): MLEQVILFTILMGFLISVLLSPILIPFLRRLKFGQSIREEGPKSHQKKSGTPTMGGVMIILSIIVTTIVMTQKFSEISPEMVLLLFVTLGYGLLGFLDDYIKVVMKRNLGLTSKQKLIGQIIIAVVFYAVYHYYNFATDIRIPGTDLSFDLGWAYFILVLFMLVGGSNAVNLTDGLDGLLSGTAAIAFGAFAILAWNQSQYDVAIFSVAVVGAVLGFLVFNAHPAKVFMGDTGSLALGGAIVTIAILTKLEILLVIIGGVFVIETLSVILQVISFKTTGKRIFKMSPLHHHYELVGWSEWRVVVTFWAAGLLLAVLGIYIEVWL
Kind of assay: Inhibition of MraY in Bacillus subtilis using UDP-MurNAc-[14C]pentapeptide as substrate by radioactivity scanning assay.

Assay [38] has as its target T2, Phospho-N-acetylmuramoyl-pentapeptide-transferase. Kind of assay: Inhibition of MraY in Bacillus subtilis.
Assay [39] relates to Mycolicibacterium vaccae. Description: Antibacterial activity against Mycobacterium vaccae. The class given is functional.
Assay [40] deals with Mycolicibacterium smegmatis. Description: Antibacterial activity against Mycobacterium smegmatis after 20 hrs by NCCLS-based two-fold broth dilution method. The class given is functional.
Assay [41] concerns Staphylococcus aureus. Kind of assay: Antibacterial activity against multi drug resistance Staphylococcus aureus after 20 hrs by NCCLS-based two-fold broth dilution method. The class given is functional.
For assay [42], the system named is Staphylococcus aureus. Description: Antibacterial activity against Staphylococcus aureus after 20 hrs by NCCLS-based two-fold broth dilution method. It is filed as functional.

For `CCCCCCCCCCCCCCCC(=O)N[C@@H]1CCN[C@@H]([C@H](O[C@@H]2O[C@H](CN)[C@@H](O)[C@H]2O)[C@H]2O[C@@H](n3ccc(=O)[nH]c3=O)[C@H](O)[C@@H]2O)C1`, the MIC in [1] is 8 µg/mL (≈ 11.2 µM); in assay [2], above 64 µg/mL; in assay [3] it was 32 µg/mL (≈ 45 µM); in assay [4], above 64 µg/mL; in assay [6] it was 64 µg/mL (≈ 89.9 µM); in assay [7], 8 µg/mL (≈ 11.2 µM). In addition, the MIC came to 16 µg/mL (≈ 22.5 µM) in assay [8]; 8 µg/mL (≈ 11.2 µM) in assay [9]; 2 µg/mL (≈ 2.81 µM) in assay [10]; 4 µg/mL (≈ 5.62 µM) in assay [11]; 32 µg/mL (≈ 45 µM) in assay [12]; 2 µg/mL (≈ 2.81 µM) in [13]. In addition, the MIC in assay [14] stood at 4 µg/mL (≈ 5.62 µM); in assay [15], 4 µg/mL (≈ 5.62 µM); in assay [16], 2 µg/mL (≈ 2.81 µM); in [17] it was 32 µg/mL (≈ 45 µM); in assay [18], 8 µg/mL (≈ 11.2 µM); in [19] it was 32 µg/mL (≈ 45 µM). In addition, the figures for the MIC in assay [20], in assay [21] and in assay [22] were 16 µg/mL (≈ 22.5 µM), 4 µg/mL (≈ 5.62 µM) and above 64 µg/mL, respectively. Also, the IC50 (commonly the concentration that gives 50% inhibition) in assay [5] worked out at 24 µM.
For `CO[C@@H]1[C@@H](OC)[C@H](C)O[C@@H](OC(=O)C[C@@H](C)CC(=O)O[C@@H](CCCCCCCCCCC(C)C)CC(=O)O[C@H]2CN(C)[C@@H]([C@H](O[C@@H]3O[C@H](CN)[C@@H](O)[C@H]3O)[C@H]3O[C@@H](n4ccc(=O)[nH]c4=O)[C@H](O)[C@@H]3O)C(=O)N(C)[C@@H]2C(=O)O)[C@@H]1OC`, the MIC in assay [23] is 50 µg/mL (≈ 43.6 µM); in assay [24], 100 µg/mL (≈ 87.2 µM); in [25], 1.56 to 3.13 µg/mL (≈ 1.36 to 2.73 µM); in assay [26], 1.56 to 6.25 µg/mL (≈ 1.36 to 5.45 µM); in assay [27], 6.25 to 12.5 µg/mL (≈ 5.45 to 10.9 µM); in assay [28], 6.25 to 50 µg/mL (≈ 5.45 to 43.6 µM). The figures for the MIC in [29] and in assay [30] were 1.56 to 25 µg/mL (≈ 1.36 to 21.8 µM) and 3.13 to 12.5 µg/mL (≈ 2.73 to 10.9 µM), respectively.
With `NC[C@H]1O[C@@H](O[C@@H](c2cn(CCCCCCCCCCOc3ccc(C(=O)c4ccccc4)cc3)nn2)[C@H]2O[C@@H](n3ccc(=O)[nH]c3=O)[C@H](O)[C@@H]2O)[C@H](O)[C@@H]1O`, the MIC in assay [7] is above 128 µg/mL; in assay [31] it was above 128 µg/mL; in [32], above 128 µg/mL; in [34] it was 8 µg/mL (≈ 10.3 µM); in assay [35], 8 µg/mL (≈ 10.3 µM); in assay [36], above 128 µg/mL. The IC50 was determined as 100 µM in assay [33], 100 µM in assay [37] and 125 µM in [38].
Consider `CCCCCCCCCCCCC[C@@H](CC(=O)O[C@H]1CN(C)[C@@H]([C@H](O[C@@H]2O[C@H](CN)[C@@H](O)[C@H]2O)[C@H]2O[C@@H](n3ccc(=O)[nH]c3=O)[C@H](O)[C@@H]2O)C(=O)N(C)[C@@H]1C(=O)O)OC(=O)C[C@H](C)CC(=O)O[C@@H]1O[C@@H](C)[C@H](OC)[C@@H](OC)[C@H]1OC`, for which the MIC in [39] is 0.2 µg/mL (≈ 0.174 µM); in assay [25], 0.78 to 1.56 µg/mL (≈ 0.68 to 1.36 µM); in assay [28] it was below 0.025 µg/mL; in assay [29], 0.78 µg/mL (≈ 0.68 µM); in assay [30] it was 1.56 µg/mL (≈ 1.36 µM).
`NC[C@H]1O[C@@H](O[C@@H](c2cn(Cc3ccc(COc4ccc(C(=O)c5ccccc5)cc4)cc3)nn2)[C@H]2O[C@@H](n3ccc(=O)[nH]c3=O)[C@H](O)[C@@H]2O)[C@H](O)[C@@H]1O`: the IC50 in assay [37] was determined as 50 µM.
For the compound `CCCCCCCCCCCCCCCC(=O)O[C@H]1CN(C)[C@@H]([C@H](O[C@@H]2O[C@H](CN)[C@@H](O)[C@H]2O)[C@H]2O[C@@H](n3ccc(=O)[nH]c3=O)[C@H](O)[C@@H]2O)C(=O)N(C)[C@@H]1C(=O)O` [PALMITOYL CAPRAZOL], the MIC in [40] turned out to be 6.25 µg/mL (≈ 7.68 µM); in assay [41], 3.13 µg/mL (≈ 3.85 µM); in assay [16], 12.5 µg/mL (≈ 15.4 µM); in assay [20], 6.25 µg/mL (≈ 7.68 µM); in [42], 1.56 µg/mL (≈ 1.92 µM).
